In patent US7098340B2, “Benzyl sulfonamide derivatives” (Warner Lambert Company LLC, priority 2003, dated 2006):

Each compound was assayed against T1, androgen receptor (Homo sapiens, UniProt P10275) (assay: AR Antagonist Cell Assay (MMTV-luciferase reporter, DHT-stimulated)). Conditions: MDA-MB453-MMTV clone 54-19 cells; antagonism of 100 pM DHT, 17 hr, luciferase readout.
T1 sequence (P10275 1-920 Q868H): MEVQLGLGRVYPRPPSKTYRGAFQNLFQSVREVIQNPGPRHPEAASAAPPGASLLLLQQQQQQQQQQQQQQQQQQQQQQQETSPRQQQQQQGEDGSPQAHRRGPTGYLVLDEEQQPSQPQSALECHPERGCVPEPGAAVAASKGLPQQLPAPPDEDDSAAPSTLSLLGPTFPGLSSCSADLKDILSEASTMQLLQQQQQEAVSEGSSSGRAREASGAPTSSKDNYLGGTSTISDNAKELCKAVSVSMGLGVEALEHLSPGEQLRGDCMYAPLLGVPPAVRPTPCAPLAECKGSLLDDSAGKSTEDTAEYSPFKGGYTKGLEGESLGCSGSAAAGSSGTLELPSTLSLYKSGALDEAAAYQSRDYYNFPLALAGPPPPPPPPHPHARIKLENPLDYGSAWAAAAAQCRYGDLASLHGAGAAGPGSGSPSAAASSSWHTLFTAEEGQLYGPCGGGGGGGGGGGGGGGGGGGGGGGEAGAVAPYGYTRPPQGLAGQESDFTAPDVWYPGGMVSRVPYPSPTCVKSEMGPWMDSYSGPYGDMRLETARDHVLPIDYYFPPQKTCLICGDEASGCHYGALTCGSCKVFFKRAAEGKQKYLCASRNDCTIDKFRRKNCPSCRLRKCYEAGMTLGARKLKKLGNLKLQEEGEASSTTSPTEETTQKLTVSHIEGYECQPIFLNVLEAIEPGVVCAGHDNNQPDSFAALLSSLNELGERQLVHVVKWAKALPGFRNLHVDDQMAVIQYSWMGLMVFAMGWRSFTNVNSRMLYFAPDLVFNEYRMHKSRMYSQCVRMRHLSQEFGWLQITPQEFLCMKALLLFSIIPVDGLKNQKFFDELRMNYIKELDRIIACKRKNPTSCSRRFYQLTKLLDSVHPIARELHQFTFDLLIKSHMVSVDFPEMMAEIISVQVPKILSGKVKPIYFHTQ
Assay type: cell-based
Procedure: The compounds ability to antagonize the effects of androgen on the androgen receptor were determined in the protocol described immediately below.
Experimental Procedure for AR Antagonist Cell Assay
Cell line: MDA-MB453-MMTV clone 54–19. This cell line is a stable transfected cell line with MDA-MB453 cell background (human breast tumor cell expressing high level of androgen receptor). A MMTV minimal promoter containing ARE was first cloned in front of a firefly luciferase reporter gene. Then the cascade was cloned into transfection vector pUV120puro. Electroporation method was used for transfecting MDA-MB-453 cell. Puromycin resistant stable cell line was selected.
Cell Culture Media and Reagents:
Culture medium: DMEM (high glucose, Gibco cat #: 11960-044), 10% FBS, and 1% L-glutamine
Plating medium: DMEM (phenol red free), 10% charcoal treated HyClone serum, 1% L-glutamine
Assay medium: DMEM (phenol red free), 1% charcoal treated HyClone serum, 1% L-glutamine, and 1% penicillin/streptomycin
3× luciferase buffer: 2% beta-mercaptoethanol, 0.6% ATP, 0.0135% luciferine in cell lysis buffer
• 1. Cells are maintained in culture medium, splitting cells when they reach 80–90% confluence • 2. To test compounds, 10,000 cells/well are plated to opaque 96 cell culture plate in 100 ul/well plating medium, culture for overnight at 37° C. in cell culture incubator • 3. Carefully remove plating medium, then add 80 ul/well of pre-warmed assay medium, add 10 ul/well testing compound (final concentration at 10 uM or 1 uM), incubate at 37° C. for 30 minutes • 4. Add 10 ul/well freshly prepared DHT (final concentration at 100 pM) to each well, incubate at 37° C. for 17 hr (overnight) • 5. Add 50 ul/well 3× luciferase buffer, incubate at room temperature for 5 minutes, then count on Luminometer.
The fold induction over background by 100 pM DHT in the absence of testing compounds is standardized as 100% and experimental result is expressed as percentage of inhibition by testing compounds.

Point of comparison: `O=c1cc(C(F)(F)F)c2cc(Cc3ccc(S(=O)(=O)Nc4ccc(CCO)cc4)cc3)ccc2o1` [Example 151, N-[4-(2-Hydroxyethyl)phenyl]-4-(2-oxo-4-trifluoromethyl-2H-chromen-6-ylmethyl)-benzenesulfonamide], IC50 1.75 µM. Against it:
- CCCCN(C)S(=O)(=O)c1ccc(Cc2ccc3[nH]c(=O)cc(C(F)(F)F)c3c2)cc1 [Example 9B, N-Butyl-N-methyl-4-(2-oxo-4-trifluoromethyl-1,2-dihydroquinolin-6-ylmethyl)benzenesulfonamide] — higher, > 10 µM
- CN(CCc1ccccn1)S(=O)(=O)c1ccc(Cc2ccc3[nH]c(=O)cc(C(F)(F)F)c3c2)cc1 [Example 13, N-Methyl-4-(2-oxo-4-trifluoromethyl-1,2-dihydroquinolin-6-ylmethyl)-N-(2-pyridin-2-ylethyl)benzenesulfonamide] — higher, > 10 µM
- O=c1cc(C(F)(F)F)c2cc(Cc3ccc(S(=O)(=O)N[C@H]4CCCC[C@H]4OCc4ccccc4)cc3)ccc2[nH]1 [Example 93, N-(2-Benzyloxycyclohexyl)-4-(2-oxo-4-trifluoromethyl-1,2-dihydroquinolin-6-ylmethyl)-benzenesulfonamide] — higher, > 10 µM
- O=C1CCCN1CCCNS(=O)(=O)c1ccc(Cc2ccc3oc(=O)cc(C(F)(F)F)c3c2)cc1 [Example 187, N-[3-(2-Oxopyrrolidin-1-yl)propyl]-4-(2-oxo-4-trifluoromethyl-2H-chromen-6-ylmethyl)benzenesulfonamide] — 2-fold higher, 3.44 µM
- O=c1cc(C(F)(F)F)c2cc(Cc3ccc(S(=O)(=O)Nc4ccc5ncccc5c4)cc3)ccc2[nH]1 [Example 19, 4-(2-Oxo-4-trifluoromethyl-1,2-dihydroquinolin-6-ylmethyl)-N-quinolin-6-ylbenzenesulfonamide] — higher, > 10 µM
- Cc1ccc(-c2ccccc2)cc1NS(=O)(=O)c1ccc(Cc2ccc3[nH]c(=O)cc(C(F)(F)F)c3c2)cc1 [Example 22, N-(4-Methylbiphenyl-3-yl)-4-(2-oxo-4-trifluoromethyl-1,2-dihydroquinolin-6-ylmethyl)-benzenesulfonamide] — higher, > 10 µM
- O=c1cc(C(F)(F)F)c2cc(Cc3ccc(S(=O)(=O)N(CCO)Cc4ccccc4)cc3)ccc2o1 [Example 103, N-Benzyl-N-(2-hydroxyethyl)-4-(2-oxo-4-trifluoromethyl-2H-chromen-6-ylmethyl)-benzenesulfonamide] — 5.7-fold higher, ~10 µM
- CC(C)CCNS(=O)(=O)c1ccc(Cc2ccc3oc(=O)cc(C(F)(F)F)c3c2)cc1 [Example 159, N-(3-Methylbutyl)-4-(2-oxo-4-trifluoromethyl-2H-chromen-6-ylmethyl)benzenesulfonamide] — higher, > 10 µM
- CN(c1ccccc1)S(=O)(=O)c1ccc(Cc2ccc3oc(=O)cc(C(F)(F)F)c3c2)cc1 [Example 114, N-Methyl-4-(2-oxo-4-trifluoromethyl-2H-chromen-6-ylmethyl)-N-phenylbenzenesulfonamide] — 3.4-fold higher, 5.94 µM
- O=c1cc(C(F)(F)F)c2cc(Cc3ccc(S(=O)(=O)NCc4cccc(Cl)c4F)cc3)ccc2[nH]1 [Example 77, N-(3-Chloro-2-fluorobenzyl)-4-(2-oxo-4-trifluoromethyl-1,2-dihydroquinolin-6-ylmethyl)-benzenesulfonamide] — higher, > 10 µM
- O=c1cc(C(F)(F)F)c2cc(Cc3ccc(S(=O)(=O)NCCc4ccccn4)cc3)ccc2[nH]1 [Example 59, 4-(2-Oxo-4-trifluoromethyl-1,2-dihydroquinolin-6-ylmethyl)-N-(2-pyridin-2-ylethyl)-benzenesulfonamide] — 5.3-fold higher, 9.25 µM
- CC(C)(C)c1cc(NS(=O)(=O)c2ccc(Cc3ccc4oc(=O)cc(C(F)(F)F)c4c3)cc2)cc(C(C)(C)C)c1 [Example 153, N-(3,5-Di-tert-butylphenyl)-4-(2-oxo-4-trifluoromethyl-2H-chromen-6-ylmethyl)-benzenesulfonamide] — higher, > 10 µM
- O=C1CCCN1CCCNS(=O)(=O)c1ccc(Cc2ccc3[nH]c(=O)cc(C(F)(F)F)c3c2)cc1 [Example 68, N-[3-(2-Oxopyrrolidin-1-yl)propyl]-4-(2-oxo-4-trifluoromethyl-1,2-dihydroquinolin-6-ylmethyl)-benzenesulfonamide] — 4.4-fold higher, 7.62 µM
- O=c1cc(C(F)(F)F)c2cc(Cc3ccc(S(=O)(=O)NCCCCc4ccccc4)cc3)ccc2[nH]1 [Example 70, 4-(2-Oxo-4-trifluoromethyl-1,2-dihydroquinolin-6-ylmethyl)-N-(4-phenylbutyl)-benzenesulfonamide] — higher, > 10 µM
- O=c1cc(C(F)(F)F)c2cc(Cc3ccc(S(=O)(=O)NCC4CCCC[C@H]4O)cc3)ccc2o1 (stereo in doubt) [Example 177, N-(2-Hydroxycyclohexylmethyl)-4-(2-oxo-4-trifluoromethyl-2H-chromen-6-ylmethyl)benzenesulfonamide] — 3.3-fold higher, 5.77 µM
- O=c1cc(C(F)(F)F)c2cc(Cc3ccc(S(=O)(=O)Nc4cccc5ncccc45)cc3)ccc2[nH]1 [Example 29, 4-(2-Oxo-4-trifluoromethyl-1,2-dihydroquinolin-6-ylmethyl)-N-quinolin-5-ylbenzenesulfonamide] — higher, > 10 µM
- COc1ccc(N(Cc2ccccc2)S(=O)(=O)c2ccc(Cc3ccc4[nH]c(=O)cc(C(F)(F)F)c4c3)cc2)cc1 [Example 45, N-Benzyl-N-(4-methoxyphenyl)-4-(2-oxo-4-trifluoromethyl-1,2-dihydroquinolin-6-ylmethyl)-benzenesulfonamide] — higher, > 10 µM
- Cc1ccc(F)c(CNS(=O)(=O)c2ccc(Cc3ccc4[nH]c(=O)cc(C(F)(F)F)c4c3)cc2)c1Cl [Example 84, N-(2-Chloro-6-fluoro-3-methylbenzyl)-4-(2-oxo-4-trifluoromethyl-1,2-dihydroquinolin-6-ylmethyl)-benzenesulfonamide] — higher, > 10 µM
- O=c1cc(C(F)(F)F)c2cc(Cc3ccc(S(=O)(=O)NCCc4c[nH]c5ccccc45)cc3)ccc2[nH]1 [Example 79, N-[2-(1H-Indol-3-yl)ethyl]-4-(2-oxo-4-trifluoromethyl-1,2-dihydroquinolin-6-ylmethyl)-benzenesulfonamide] — 5.9-fold higher, 10.3 µM
- O=c1cc(C(F)(F)F)c2cc(Cc3ccc(S(=O)(=O)NCCN4CCOCC4)cc3)ccc2[nH]1 [Example 62, N-(2-Morpholin-4-ylethyl)-4-(2-oxo-4-trifluoromethyl-1,2-dihydroquinolin-6-ylmethyl)-benzenesulfonamide] — 3.8-fold higher, 6.66 µM
- O=c1cc(C(F)(F)F)c2cc(Cc3ccc(S(=O)(=O)Nc4cccc(OC(F)F)c4)cc3)ccc2[nH]1 [Example 36, N-(3-Difluoromethoxyphenyl)-4-(2-oxo-4-trifluoromethyl-1,2-dihydroquinolin-6-ylmethyl)-benzenesulfonamide] — 3.5-fold higher, 6.14 µM
- O=c1cc(C(F)(F)F)c2cc(Cc3ccc(S(=O)(=O)Nc4ccccc4CO)cc3)ccc2o1 [Example 121, N-(2-Hydroxymethylphenyl)-4-(2-oxo-4-trifluoromethyl-2H-chromen-6-ylmethyl)-benzenesulfonamide] — 1.8-fold higher, 3.17 µM
- CSc1ccccc1CNS(=O)(=O)c1ccc(Cc2ccc3[nH]c(=O)cc(C(F)(F)F)c3c2)cc1 [Example 73, N-(2-Methylsulfanylbenzyl)-4-(2-oxo-4-trifluoromethyl-1,2-dihydroquinolin-6-ylmethyl)-benzenesulfonamide] — higher, > 10 µM
- O=c1cc(C(F)(F)F)c2cc(Cc3ccc(S(=O)(=O)N(CCO)C4CCCCC4)cc3)ccc2o1 [Example 95, N-Cyclohexyl-N-(2-hydroxyethyl)-4-(2-oxo-4-trifluoromethyl-2H-chromen-6-ylmethyl)benzenesulfonamide] — 1.7-fold lower, 1.03 µM
